Counter-ions that a name gives are not always drawn.
What was measured:
[1] = test system: Acute promyelocytic leukemia NB4 cells; test: Cell growth (CellTiter-Fluor cell viability assay); type: cell-based; conditions: Homo sapiens, NB-4, 48 h, range classes, read-out: IC50 [μM], cell growth inhibitory assay
Excerpt: CellTiter-Flor® (Promega) is as a nonlytic, single-reagent-addition fluorescence assay that measures the relative number of living cells in a culture population after experimental manipulation. The CellTiter-Fluor™ Cell Viability Assay measures the conserved and constitutive protease activity within live cells and therefore acts as a marker for cell viability.
Acute promyelocytic leukemia NB4 cells, (obtained from the Deutsche Sammlung von Mikroorganismen and Zellkulturen) in exponential growth, were incubated for 48 h with different concentrations of the inhibitors. After 48 h a volume of CellTiter-Fluor® Reagent equal to one fifth of volume of cell culture medium was added. The content was mixed and incubates for at least 90 min at 37° C. degree to obtain a stable signal. The fluorescence was recorded using an excitation wavelength of 360 nm and an emission at 535 nm. The IC50 was calculated using GraphPad Software.

[2] = biological target: T1, human recombinant KDM1A (LSD1)/CoRest (Homo sapiens, UniProt O60341); test: Assay of enzyme inhibition of KDM1A (LSD1), Amplex UltraRed/peroxidase coupled; type: biochemical; conditions: 15 min preincubation, 4.5 μM mono-methylated H3-K4 peptide, range classes, read-out: IC50 [μM], KDM1A inhibition assay
T1 construct: made in house; host or cells: E. coli
Experimental: The experiments were performed using a mono-methylated H3-K4 peptide containing 21 amino acids (custom synthesis done by Thermo Scientific) as substrate and in a 50 mM TRIS, pH 8, 0.05 mg/ml BSA buffer.
The demethylase activity was estimated under aerobic conditions and at RT by measuring the release of H2O2 produced during the catalytic process by the Amplex® UltraRed detection system coupled with peroxidase assay. Briefly, a fixed amount of KDM1A/CoRest complex was incubated at RT for 15 minutes in the absence and/or the presence of various concentrations of inhibitor (e.g. from 0 to 100 μM, depending on the inhibitor strength) and of Amplex® UltraRed detection system coupled with peroxidase assay. The inhibitors were tested twice in duplicates at each concentration. […] The conversion of the Amplex® Ultra Red reagent to resorufin was monitored in continuous by fluorescence (excitation at 540 nm, emission at 590 nm) using a microplate reader (Infinite 200, Tecan). Arbitrary units were used to measure the level of H2O2 produced in the absence and/or in the presence of inhibition. The maximum demethylase activity of KDM1A/CoRest was obtained in the absence of inhibitors and corrected for background fluorescence in the absence of KDM1A/CoRest. The IC50 was calculated using GraphPad Software.

Row | SMILES | IC50 [1] [µM] | IC50 [2] [µM]
1 | CC[C@@]1(N)C[C@H]1c1ccc(Br)cc1 (relative stereo) [Example A-12, trans-2-(4-bromophenyl)-1-ethyl-cyclopropanamine hydrochloride] | 10 to 50 | 0.1 to 1
2 | N[C@]1(Cc2ccccc2)C[C@H]1c1ccc(Br)cc1 (relative stereo) [Example A-13, trans-1-benzyl-2-(4-bromophenyl)cyclopropanamine hydrochloride] | 10 to 50 | 0.1 to 1
3 | CC[C@@]1(N)C[C@H]1c1ccc(OC(F)(F)F)cc1 (relative stereo) [Example A-24, 1-ethyl-(trans)-2-[4-(trifluoromethoxy)phenyl] cyclopropanamine hydrochloride] | 50 to 100 | 1 to 5
4 | N[C@]1(Cc2ccc3ccccc3c2)C[C@H]1c1ccc(Br)cc1 (relative stereo) [Example A-29, trans-2-(4-bromophenyl)-1-(2-naphthylmethyl)cyclopropanamine hydrochloride] | 10 to 50 | 0.1 to 1
5 | CC[C@@]1(N)C[C@H]1c1ccc(OCc2ccccc2)cc1 (relative stereo) [Example A-41, 2-(4-benzyloxyphenyl)- trans-1-ethyl-cyclopropanamine hydrochloride] | 10 to 50 | 0.1 to 1
6 | N[C@]1(Cc2ccccc2)C[C@H]1c1ccc(OCc2ccccc2)cc1 (relative stereo) [Example A-43, trans-1-benzyl-2-(4-benzyloxyphenyl) cyclopropanamine hydrochloride] | 10 to 50 | 0.1 to 1
7 | N[C@]1(Cc2ccc3ccccc3c2)C[C@H]1c1ccc(NC(=O)Cc2ccccc2)cc1 (relative stereo) [Example A-46, N-[4-[(trans-2-amino-2-(2-naphthylmethyl)cyclopropyl]phenyl]-2-phenyl-acetamide hydrochloride] | ≤ 10 | < 0.1
8 | N[C@]1(Cc2ccc3ccccc3c2)C[C@H]1c1ccc(NC(=O)c2ccc(NC(=O)OCc3ccccc3)cc2)cc1 (relative stereo) [Example A-70, benzyl N-[4-[[4-[trans-2-amino-2-(2-naphthylmethyl)cyclopropyl]phenyl]carbamoyl]phenyl]carbamate 2,2,2-trifluoroacetic acid] | ≤ 10 | 0.1 to 1
9 | N[C@]1(Cc2ccc3ccccc3c2)C[C@H]1c1ccc(NC(=O)c2ccc(-c3ccccc3)cc2)cc1 (relative stereo) [Example A-73, N-[4-[trans-2-amino-2-(2-naphthylmethyl)cyclopropyl]phenyl]-4-phenyl-benzamide hydrochloride] | 10 to 50 | 0.1 to 1
10 | N[C@]1(Cc2ccc3ccccc3c2)C[C@H]1c1ccc(NC(=O)Cc2cccc3ccccc23)cc1 (relative stereo) [Example A-76, N-[4-[trans-2-amino-2-(2-naphthylmethyl)cyclopropyl]phenyl]-2-(1-naphthyl)acetamide hydrochloride] | ≤ 10 | 0.1 to 1
11 | N[C@]1(c2ccccc2)C[C@H]1c1ccc(NC(=O)c2cccc(NC(=O)OCc3ccccc3)c2)cc1 (relative stereo) [Example A-84, benzyl N-[3-[(4-[trans-2-amino-2-phenyl-cyclopropyl]phenyl)carbamoyl]phenyl]carbamate 2,2,2-trifluoroacetic acid] | 10 to 50 | < 0.1

Next, values leading:

Row | IC50 [1] [µM] | IC50 [2] [µM] | SMILES
12 | 10 to 50 | 0.1 to 1 | CC[C@@]1(N)C[C@H]1c1cccc(NC(=O)c2cccc(NC(=O)OCc3ccccc3)c2)c1 (relative stereo) [Example A-33, benzyl N-[3-[[3-[(trans)-2-amino-2-ethyl-cyclopropyl]phenyl]carbamoyl]phenyl]carbamate hydrochloride]
13 | 10 to 50 | < 0.1 | CC[C@@]1(N)C[C@H]1c1ccc(NC(=O)c2cccc(Cl)c2)cc1 (relative stereo) [Example A-34, N-[4-[(trans-2-amino-2-ethyl-cyclopropyl]phenyl]-3-chloro-benzamide hydrochloride]
14 | 10 to 50 | < 0.1 | CC[C@@]1(N)C[C@H]1c1ccc(NC(=O)c2cccc(NC(=O)OCc3ccccc3)c2)cc1 (relative stereo) [Example A-37, benzyl N-[3-[[4-[(trans)-2-amino-2-ethyl-cyclopropyl]phenyl]carbamoyl]phenyl]carbamate hydrochloride]
15 | ≤ 10 | < 0.1 | CC[C@@]1(N)C[C@H]1c1ccc(NC(=O)CCc2ccccc2)cc1 (relative stereo) [Example A-40, N-[4-[(trans)-2-amino-2-ethyl-cyclopropyl]phenyl]-3-phenyl-propanamide hydrochloride]
16 | 10 to 50 | < 0.1 | CC[C@@]1(N)C[C@H]1c1ccc(NC(=O)Cc2cccc3ccccc23)cc1 (relative stereo) [Example A-68, N-[4-trans-[2-amino-2-ethyl-cyclopropyl]phenyl]-2-(1-naphthyl) acetamide hydrochloride]
17 | ≤ 10 | < 0.1 | CC[C@@]1(N)C[C@H]1c1ccc(NC(=O)c2cccc3ccccc23)cc1 (relative stereo) [Example A-71, N-[4-(trans-2-amino-2-ethyl-cyclopropyl)phenyl] naphthalene-1-carboxamide hydrochloride]
18 | ≤ 10 | 0.1 to 1 | N[C@]1(Cc2ccc3ccccc3c2)C[C@H]1c1ccc(NC(=O)c2ccc3ccccc3c2)cc1 (relative stereo) [Example A-72, N-[4-[trans-2-amino-2-(2-naphthylmethyl)cyclopropyl]phenyl] naphthalene-2-carboxamide hydrochloride]
19 | 10 to 50 | < 0.1 | CC[C@@]1(N)C[C@H]1c1ccc(NC(=O)Cc2ccc3ccccc3c2)cc1 (relative stereo) [Example A-74, N-[4-trans-2-amino-2-ethyl-cyclopropyl] phenyl]-2-(2-naphthyl) acetamide hydrochloride]
20 | 10 to 50 | < 0.1 | N[C@]1(c2ccccc2)C[C@H]1c1ccc(NC(=O)c2ccccc2)cc1 (relative stereo) [Example A-75, N-[4-[trans-2-amino-2-phenyl-cyclopropyl]phenyl] benzamide hydrochloride]
21 | 10 to 50 | 0.1 to 1 | CC[C@@]1(N)C[C@H]1c1cccc(NC(=O)Cc2cccc3ccccc23)c1 (relative stereo) [Example A-77, N-[3-[trans-2-amino-2-ethyl-cyclopropyl]phenyl]-2-(1-naphthyl) acetamide hydrochloride]
22 | 10 to 50 | < 0.1 | N[C@]1(Cc2ccc3ccccc3c2)C[C@H]1c1ccc(NC(=O)c2cccc(Cl)c2)cc1 (relative stereo) [Example A-79, N-[4-[trans-2-amino-2-(2-naphthylmethyl)cyclopropyl]phenyl]-3-chloro-benzamide hydrochloride]
23 | 10 to 50 | 0.1 to 1 | CC[C@@]1(N)C[C@H]1c1cccc(NC(=O)c2cccc(Cl)c2)c1 (relative stereo) [Example A-80, N-[3-[trans-2-amino-2-ethyl-cyclopropyl]phenyl]-3-chloro-benzamide hydrochloride]
24 | ≤ 10 | < 0.1 | CC[C@@]1(N)C[C@H]1c1ccc(NC(=O)c2ccc(N3CCOC3=O)cc2)cc1 (relative stereo) [Example A-83, N-[4-[trans-2-amino-2-ethyl-cyclopropyl]phenyl]-4-(2-oxooxazolidin-3-yl)benzamide hydrochloride]
25 | ≤ 10 | < 0.1 | N[C@]1(c2ccccc2)C[C@H]1c1ccc(NC(=O)c2ccc3ccccc3c2)cc1 (relative stereo) [Example A-85, N-[4-[trans-2-amino-2-phenyl-cyclopropyl]phenyl] naphthalene-2-carboxamide hydrochloride]
26 | 50 to 100 | < 0.1 | CC[C@@]1(N)C[C@H]1c1ccc(NC(=O)c2ccccc2)c(F)c1 (relative stereo) [Example A-86, N-[4-[trans-2-amino-2-ethyl-cyclopropyl]-2-fluoro-phenyl]benzamide hydrochloride]
27 | 10 to 50 | < 0.1 | CC[C@@]1(N)C[C@H]1c1ccc(NC(=O)c2ccc(-c3ccccc3)cc2)c(F)c1 (relative stereo) [Example A-87, N-[4-[trans-2-amino-2-ethyl-cyclopropyl]-2-fluoro-phenyl]-4-phenyl-benzamide hydrochloride]

Reference: patent publication US9944589B2, “Cycloproplyamine derivatives useful as inhibitors of histone demethylases KDM1A” (Istituto Europeo de Oncologia S.r.L., priority 2012, dated 2018)
